Activity calls are given as the source filed them. No cut-off for these calls is given here.
Columns and labels:
[1] = system: von Hippel-Lindau disease tumor suppressor/GTPase KRas (Homo sapiens), P01116+P40337 [G12D]; test: In vivo PROTAC activity at VHL/KRAS G12D mutant in human ASPC1 cells xenografted in BALB/c nude mouse assessed as decrease in DUSP4 mRNA level at 50 mg/kg, sc measured for 24 hrs by RT-qPCR analysis; type: functional, organism-based
[2] = system: ASPC1; test: Antiproliferative activity against human ASPC1 cells harboring KRAS G12D mutant assessed as inhibition of cell viability incubated for 5 days by Cell Titer Glo assay; type: functional, cell-based; conditions: ASPC1, 120 h
[3] = Competitive binding affinity to His-tagged VHL/Elongin C/Elongin B/KRAS G12D mutant (unknown origin) by FP assay; set-up: species or system Homo sapiens
[4] = target: T1, von Hippel-Lindau disease tumor suppressor/GTPase KRas (Homo sapiens, UniProt P01116+P40337, G12D); test: PROTAC activity at VHL/KRAS G12D mutant in human SNU1 cells assessed as inhibition of pERK level incubated for 24 hrs by Western blot analysis; type: cell-based
T1 sequence (P01116 whole entry G12D, stated change not applied): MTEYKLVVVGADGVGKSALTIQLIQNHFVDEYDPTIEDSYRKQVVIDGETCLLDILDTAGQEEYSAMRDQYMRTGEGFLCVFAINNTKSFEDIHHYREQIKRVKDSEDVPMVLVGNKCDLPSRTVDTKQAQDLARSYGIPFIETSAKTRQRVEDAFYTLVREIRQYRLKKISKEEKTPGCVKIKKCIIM
T1 sequence (P40337 whole entry, stated change not applied): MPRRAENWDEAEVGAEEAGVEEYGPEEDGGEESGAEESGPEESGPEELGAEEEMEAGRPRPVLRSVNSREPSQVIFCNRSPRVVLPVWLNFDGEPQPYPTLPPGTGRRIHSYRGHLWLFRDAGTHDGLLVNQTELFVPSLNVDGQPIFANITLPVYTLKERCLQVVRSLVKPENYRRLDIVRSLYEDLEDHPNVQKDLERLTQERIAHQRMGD

[5] = system: von Hippel-Lindau disease tumor suppressor/GTPase KRas (Homo sapiens), P01116+P40337 [G12D]; test: PROTAC activity at VHL/KRAS G12D mutant in human ASPC1 cells assessed as decrease in pERK level at 1 uM incubated for 6 hrs followed by compound washout measured upto 72 hrs by Western blot analysis; type: cell-based
[6] = target: T1, von Hippel-Lindau disease tumor suppressor/GTPase KRas; test: PROTAC activity at VHL/KRAS G12D mutant in human AGS cells assessed as induction of protein degradation incubated for 24 hrs by Western blot analysis; type: cell-based
[7] = Cmax in BALB/c mouse at 10 mg/kg, sc by LC-MS/MS analysis; type: ADME, organism-based; conditions: in vivo
[8] = system: ASPC1; test: Downregulation of DUSP4 mRNA level in human ASPC1 cells at 0.1 to 1 uM incubated for 6 hrs by RT-qPCR analysis; type: functional, cell-based; conditions: dose 0.1-1 µM
[9] = system: von Hippel-Lindau disease tumor suppressor/GTPase KRas (Homo sapiens), P01116+P40337 [G12D]; test: In vivo PROTAC activity at VHL/KRAS G12D mutant in human ASPC1 cells xenografted in BALB/c nude mouse assessed as induction of protein degradation at 50 mg/kg, sc measured for >24 hrs; type: functional, organism-based
[10] = Competitive binding affinity to His-tagged VHL/Elongin C/Elongin B (unknown origin) by FP assay; set-up: species or system Homo sapiens
[11] = system: von Hippel-Lindau disease tumor suppressor/GTPase KRas (Homo sapiens), P01116+P40337 [G12C]; test: PROTAC activity at VHL/KRAS G12C mutant in human NCI-H358 cells assessed as induction of protein degradation at 1 uM incubated for 24 hrs by Western blot analysis relative to control; type: cell-based
[12] = target: T1, von Hippel-Lindau disease tumor suppressor/GTPase KRas; test: PROTAC activity at VHL/KRAS G12D mutant in human HPAF-II cells assessed as induction of protein degradation incubated for 24 hrs by Western blot analysis; type: cell-based
[13] = system: von Hippel-Lindau disease tumor suppressor/GTPase KRas (Homo sapiens), P01116+P40337 [G12V]; test: PROTAC activity at VHL/KRAS G12V mutant in human SK-CO-1 cells assessed as induction of protein degradation at 0.1 uM incubated for 24 hrs by Western blot analysis; type: cell-based
[14] = system: von Hippel-Lindau disease tumor suppressor/GTPase KRas (Homo sapiens), P01116+P40337 [G12D]; test: (§1) PROTAC activity at VHL/KRAS G12D mutant in human ASPC1 cells assessed as induction of protein degradation at 1 uM pretreated with MG-132 followed by compound treatment for 6 hrs by Western blot analysis; type: cell-based
[15] = system: ASPC1; test: Downregulation of DUSP4 level in human ASPC1 cells at 0.1 uM incubated for 6 hrs by DIA-based proteomic analysis; type: functional, cell-based
[16] = species: Homo sapiens; test: Binding affinity to His-tagged VHL/Elongin C/Elongin B/GST-tagged KRAS G12D mutant (unknown origin) incubated for 1 hr by HTRF assay
[17] = system: ASPC1; test: Downregulation of KRT14 level in human ASPC1 cells at 0.1 uM incubated for 6 hrs by DIA-based proteomic analysis; type: functional, cell-based
[18] = system: von Hippel-Lindau disease tumor suppressor/GTPase KRas (Homo sapiens), P01116+P40337 [G12R]; test: PROTAC activity at VHL/KRAS G12R mutant in human CAL-62 cells assessed as induction of protein degradation at 0.1 uM incubated for 24 hrs by Western blot analysis; type: cell-based
[19] = Toxicity in BALB/c nude mouse xenografted with human ASPC1 cells assessed as drug tolerance at 50 mg/kg, sc for 22 days; type: organism-based; conditions: in vivo, 528 h, time 22 day
[20] = system: von Hippel-Lindau disease tumor suppressor/GTPase KRas (Homo sapiens), P01116+P40337 [G12D]; test: PROTAC activity at VHL/KRAS G12D mutant in human ASPC1 cells assessed as induction of protein degradation incubated for 24 hrs by Western blot analysis relative to control; type: cell-based
[21] = system: von Hippel-Lindau disease tumor suppressor/GTPase KRas (Homo sapiens), P01116+P40337 [G12D]; test: as §1, with “4-(4-((1R,5S)-3,8-diazabicyclo[3.2.1]octan-3-yl)-8-fluoro-2-(((S)-1-methylpyrrolidin-2-yl)methoxy)pyrido[4,3-d]pyrimidin-7-yl)-5-ethyl-6-fluoronaphthalen-2-ol” for “MG-132”; type: cell-based
[22] = target: T1, von Hippel-Lindau disease tumor suppressor/GTPase KRas; test: PROTAC activity at VHL/KRAS G12D mutant in human SNU1 cells assessed as induction of protein degradation incubated for 24 hrs by Western blot analysis; type: cell-based
[23] = system: von Hippel-Lindau disease tumor suppressor/GTPase KRas (Homo sapiens), P01116+P40337 [G12D]; test: In vivo PROTAC activity at VHL/KRAS G12D mutant in human ASPC1 cells xenografted in BALB/c nude mouse assessed as decrease in pERK level at 50 mg/kg, sc measured for 24 hrs by Western blot analysis; type: functional, organism-based
[24] = system: von Hippel-Lindau disease tumor suppressor/GTPase KRas (Homo sapiens), P01116+P40337 [G12D]; test: PROTAC activity at VHL/KRAS G12D mutant in human SNU1 cells assessed as decrease in pERK level at 1 uM incubated upto 24 hrs by Western blot analysis; type: cell-based
[25] = system: ASPC1; test: Downregulation of KRT9 level in human ASPC1 cells at 0.1 uM incubated for 6 hrs by DIA-based proteomic analysis; type: functional, cell-based
[26] = target: von Hippel-Lindau disease tumor suppressor/GTPase KRas (Homo sapiens) (UniProt P01116+P40337); test: PROTAC activity at VHL/KRAS in human NCI-H1975 cells assessed as induction of protein degradation at 0.1 uM incubated for 24 hrs by Western blot analysis; type: cell-based
von Hippel-Lindau disease tumor suppressor/GTPase KRas (Homo sapiens), sequence (P01116 whole entry, looked up): as the sequence (P01116 whole entry G12D, stated change not applied) above, with D12G counted along it
von Hippel-Lindau disease tumor suppressor/GTPase KRas (Homo sapiens), sequence (P40337 whole entry, looked up): as the sequence (P40337 whole entry, stated change not applied) above

[27] = system: von Hippel-Lindau disease tumor suppressor/GTPase KRas (Homo sapiens), P01116+P40337 [G12D]; test: In vivo PROTAC activity at VHL/KRAS G12D mutant in human ASPC1 cells xenografted in BALB/c nude mouse assessed as induction of protein degradation at 50 mg/kg, sc measured for 3 to 72 hrs by Western blot analysis; type: functional, organism-based; conditions: time 3-72 hrs
[28] = MRT (infinity) in BALB/c mouse at 10 mg/kg, sc by LC-MS/MS analysis; type: ADME, organism-based; conditions: in vivo
[29] = system: von Hippel-Lindau disease tumor suppressor/GTPase KRas (Homo sapiens), P01116+P40337 [G13D]; test: PROTAC activity at VHL/KRAS G13D mutant in human HCT-116 cells assessed as induction of protein degradation at 0.1 uM incubated for 24 hrs by Western blot analysis; type: cell-based
[30] = system: NCI-H358; test: Antiproliferative activity against human NCI-H358 cells harboring KRAS G12C mutant assessed as inhibition of cell viability incubated for 5 days by Cell Titer Glo assay; type: functional, cell-based; conditions: NCI-H358, 120 h
[31] = system: von Hippel-Lindau disease tumor suppressor/GTPase KRas (Homo sapiens), P01116+P40337 [G12D]; test: PROTAC activity at VHL/KRAS G12D mutant in human ASPC1 cells assessed as induction of protein degradation at 1 uM pretreated with BafA1 followed by compound treatment for 6 hrs by Western blot analysis; type: cell-based

von Hippel-Lindau disease tumor suppressor/GTPase KRas (Homo sapiens), P01116+P40337 [G12D], sequence (P01116 whole entry G12D): as the sequence (P01116 whole entry G12D, stated change not applied) above
von Hippel-Lindau disease tumor suppressor/GTPase KRas (Homo sapiens), P01116+P40337 [G12D], sequence (P40337 whole entry partner): as the sequence (P40337 whole entry, stated change not applied) above

Structure (SMILES): CCc1c(F)ccc2cc(O)cc(-c3ncc4c(N5C[C@H]6CC[C@@H](C5)N6)nc(OC[C@@H]5CCCN5CCCCOCC(=O)N[C@H](C(=O)N5C[C@H](O)C[C@H]5C(=O)N[C@@H](C)c5ccc(-c6scnc6C)cc5)C(C)(C)C)nc4c3F)c12
- Activity [1]: Active
- IC50 [2]: 60 nM
- IC50 [3]: 18.8 nM
- IC50 [4]: 17.7 nM
- Activity [5]: Active
- DC50 [6]: 7.49 nM
- Cmax [7]: 2080 ng/mL
- Activity [8]: Active
- Activity [9]: Active
- IC50 [10]: 299 nM
- Activity [11]: 37.4%
- DC50 [12]: 53 nM
- Activity [13]: inactive
- Activity [14]: inactive
- Activity [15]: Active
- Activity [16]: Active
- Activity [17]: Active
- Activity [18]: inactive
- Activity [19]: Non-Toxic
- Emax [20]: 98.9%
- Activity [21]: inactive
- DC50 [22]: 19.8 nM
- Activity [23]: Active
- Activity [24]: Active
- Activity [25]: Active
- Activity [26]: inactive
- Activity [27]: Active
- MRT inf [28]: 9.33 h
- Activity [29]: inactive
- IC50 [30]: > 9000 nM
- Activity [31]: Active

Source: ChEMBL document CHEMBL5537171, “Design, Synthesis, and Biological Evaluation of Potent and Selective PROTAC Degraders of Oncogenic KRASG12D” (J Med Chem, 2024)
